Test results from ChEMBL document CHEMBL1201862, “PubChem BioAssay data set” (2004).
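Values below derive from 48-hour exposures of cells grown in 96-well plates, with endpoints linearly interpolated between the two concentrations bracketing the appropriate inhibition level. GI50 marks 50% less growth.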 Active and inactive are the calls of the source. Rule as the data show it: active = GI50 up to about 1.1 µM and inactive = higher.

Experiments:
Assay in all cases: DTP human tumour cell line panel, 48 h
SK-OV-3 = test system: SK-OV-3
A498 = test system: A498
RXF 393 = test system: RXF 393
K562 = test system: K562
OVCAR-5 = test system: OVCAR-5
SNB-19 = test system: SNB-19
MOLT-4 = test system: MOLT-4
SNB-75 = test system: SNB-75
IGROV-1 = test system: IGROV-1
A549 = test system: A549
CCRF-CEM = test system: CCRF-CEM
RPMI-8226 = test system: RPMI-8226
HT-29 = test system: HT-29
HL-60 = test system: HL-60
SW-620 = test system: SW-620
UACC-62 = test system: UACC-62
SF-268 = test system: SF-268
SK-MEL-28 = test system: SK-MEL-28
Malme-3M = test system: Malme-3M
OVCAR-4 = test system: OVCAR-4

Measured: GI50

c1ccc2c(c1)SC1Sc3ccccc3[S+]21 (stereo not given)
inactive: SK-OV-3 > 100 µM | A498 33.3 µM | RXF 393 > 45.1 µM | K562 6.07 µM | OVCAR-5 27 µM | SNB-19 > 81.1 µM | MOLT-4 13.4 µM | SNB-75 38.4 µM | IGROV-1 22 µM | A549 27.4 µM | CCRF-CEM 16.5 µM | RPMI-8226 12.9 µM | HT-29 27.2 µM | HL-60 19.8 µM | SW-620 25.2 µM | UACC-62 17.2 µM | SF-268 18.5 µM | SK-MEL-28 16.1 µM | Malme-3M 2.98 µM | OVCAR-4 41.3 µM
